Test results: paper PMC8286840, “Identifying SARS-CoV-2 antiviral compounds by screening for small molecule inhibitors of Nsp3 papain-like protease” (Biochemical Journal, 2021)
Counter-ions that a name gives are not always drawn. Like-named read-outs stand apart in the source and are kept apart here.

Key:
[1] = molecular target: T1, SARS-CoV-2 PLpro (nsp3 1564–1878) (Severe acute respiratory syndrome coronavirus 2, UniProt P0DTD1); assay: biochemical; design: FRET-quenched peptide (Pro3) cleavage by PLpro, 10 min pre-incubation, slope over 20 min, normalised to no-compound control; settings: low concentration screen, read-out: % of control remaining
[2] = molecular target: T1, SARS-CoV-2 PLpro (nsp3 1564–1878); assay: biochemical; design: FRET-quenched peptide (Pro3) cleavage by PLpro, 10 min pre-incubation, slope over 20 min, normalised to no-compound control; settings: high concentration screen, read-out: % of control remaining

Compound: CC1=NN=C(c2ccc(N)cc2)c2cc3c(cc2C1)OCO3 [GYKI 52466 hydrochloride]
- remaining activity at 1.25 µM ([1]; Well no.=748): 92.9%
- remaining activity at 3.75 µM ([2]; Well no.=748): 92.5%

Compound: CC1Cc2cc3c(cc2C(c2ccc(N)cc2)=NN1)OCO3 (stereo not drawn) [GYKI 52895]
- remaining activity at 1.25 µM ([1]; Well no.=414): 95.2%
- remaining activity at 3.75 µM ([2]; Well no.=414): 95.8%

Compound: N[C@@H]1C=CC=C(C(=O)O)C1 [Gabaculine hydrochloride]
- remaining activity at 1.25 µM ([1]; Well no.=13): 105%
- remaining activity at 3.75 µM ([2]; Well no.=13): 105%

Compound: NCC1(CC(=O)O)CCCCC1 [Gabapentin]
- remaining activity at 1.25 µM ([1]; Well no.=510): 104%
- remaining activity at 1.25 µM ([1]; Well no.=1755): 98.1%
- remaining activity at 3.75 µM ([2]; Well no.=510): 105%
- remaining activity at 3.75 µM ([2]; Well no.=1755): 100%

Compound: CCOC(=O)c1ccc(OC(=O)CCCCCNC(=N)N)cc1 [Gabexate mesylate]
- remaining activity at 1.25 µM ([1]; Well no.=5092): 97.5%
- remaining activity at 3.75 µM ([2]; Well no.=5092): 102%

Compound: COc1ccc2c3c1O[C@H]1C[C@@H](O)C=C[C@@]31CCN(C)C2 [Galanthamine]
- remaining activity at 1.25 µM ([1]; Well no.=1707): 105%
- remaining activity at 3.75 µM ([2]; Well no.=1707): 101%

Compound: C[C@]12CC[C@H](O)CC1=CC[C@@H]1[C@@H]2CC[C@]2(C)C(n3cnc4ccccc43)=CC[C@@H]12 [Galeterone (TOK-001)]
- remaining activity at 1.25 µM ([1]; Well no.=5127): 97.5%
- remaining activity at 3.75 µM ([2]; Well no.=5127): 99.7%

Compound: CC[N+](CC)(CC)CCOc1cccc(OCC[N+](CC)(CC)CC)c1OCC[N+](CC)(CC)CC [Gallamine triethiodide]
- remaining activity at 1.25 µM ([1]; Well no.=717): 91.1%
- remaining activity at 1.25 µM ([1]; Well no.=6753): 105%
- remaining activity at 3.75 µM ([2]; Well no.=717): 87.8%
- remaining activity at 3.75 µM ([2]; Well no.=6753): 103%

Compound: CC(C)=CCC[C@]1(C)C=Cc2c(O)c3c(c(CC=C(C)C)c2O1)O[C@]12C(=C[C@@H]4C[C@H]1C(C)(C)O[C@@]2(C/C=C(/C)C(=O)O)C4=O)C3=O [Gambogic Acid]
- remaining activity at 1.25 µM ([1]; Well no.=3723): 94.4%
- remaining activity at 1.25 µM ([1]; Well no.=6926): 96.6%
- remaining activity at 3.75 µM ([2]; Well no.=3723): 97.8%
- remaining activity at 3.75 µM ([2]; Well no.=6926): 91.9%

Compound: CC(=O)[C@H]1CC[C@H]2[C@@H]3CC[C@H]4C[C@](C)(O)CC[C@]4(C)[C@H]3CC[C@]12C [Ganaxolone]
- remaining activity at 1.25 µM ([1]; Well no.=5901): 96.3%
- remaining activity at 3.75 µM ([2]; Well no.=5901): 94%

Compound: Nc1nc2c(ncn2COC(CO)CO)c(=O)[nH]1 [Ganciclovir]
- remaining activity at 1.25 µM ([1]; Well no.=667): 99.1%
- remaining activity at 1.25 µM ([1]; Well no.=2168): 97.3%
- remaining activity at 1.25 µM ([1]; Well no.=8062): 97.2%
- remaining activity at 3.75 µM ([2]; Well no.=667): 97.3%
- remaining activity at 3.75 µM ([2]; Well no.=2168): 99.3%
- remaining activity at 3.75 µM ([2]; Well no.=8062): 97.7%

Compound: CC(C)c1cc(-c2n[nH]c(=O)n2-c2ccc3c(ccn3C)c2)c(O)cc1O [Ganetespib (STA-9090)]
- remaining activity at 1.25 µM ([1]; Well no.=9028): 85.9%
- remaining activity at 3.75 µM ([2]; Well no.=9028): 86.1%

Compound: CCNCc1nc2c(N)nc3ccccc3c2n1CC(C)(C)O [Gardiquimod trifluoroacetate]
- remaining activity at 1.25 µM ([1]; Well no.=8131): 105%
- remaining activity at 3.75 µM ([2]; Well no.=8131): 103%

Compound: COc1c(N2CCNC(C)C2)c(F)cc2c(=O)c(C(=O)O)cn(C3CC3)c12 (stereo not drawn) [Gatifloxacin]
- remaining activity at 1.25 µM ([1]; Well no.=2170): 103%
- remaining activity at 3.75 µM ([2]; Well no.=2170): 104%

Compound: COc1cc2ncnc(Nc3ccc(F)c(Cl)c3)c2cc1OCCCN1CCOCC1 [Gefitinib]
- remaining activity at 1.25 µM ([1]; Well no.=1579): 102%
- remaining activity at 1.25 µM ([1]; Well no.=2743): 101%
- remaining activity at 3.75 µM ([2]; Well no.=1579): 102%
- remaining activity at 3.75 µM ([2]; Well no.=2743): 101%

Compound: COC1=C2C[C@@H](C)C[C@H](OC)[C@H](O)[C@@H](C)/C=C(\C)[C@H](OC(N)=O)[C@@H](OC)/C=C\C=C(/C)C(=O)NC(=CC1=O)C2=O [Geldanamycin]
- remaining activity at 1.25 µM ([1]; Well no.=5019): 98.5%
- remaining activity at 3.75 µM ([2]; Well no.=5019): 101%

Compound: Nc1ccn([C@@H]2O[C@H](CO)[C@@H](O)C2(F)F)c(=O)n1 [Gemcitabine (hydrochloride)]
- remaining activity at 1.25 µM ([1]; Well no.=8056): 96.9%
- remaining activity at 3.75 µM ([2]; Well no.=8056): 100%

Compound: Nc1ccn([C@@H]2O[C@H](CO)[C@@H](O)C2(F)F)c(=O)n1 [Gemcitabine HCl (Gemzar)]
- remaining activity at 1.25 µM ([1]; Well no.=5059): 104%
- remaining activity at 3.75 µM ([2]; Well no.=5059): 107%

Compound: Nc1ccn([C@@H]2O[C@H](CO)[C@@H](O)C2(F)F)c(=O)n1 [Gemcitabine]
- remaining activity at 1.25 µM ([1]; Well no.=1906): 97.8%
- remaining activity at 1.25 µM ([1]; Well no.=8054): 92.7%
- remaining activity at 3.75 µM ([2]; Well no.=1906): 98.5%
- remaining activity at 3.75 µM ([2]; Well no.=8054): 95%

Compound: Cc1ccc(C)c(OCCCC(C)(C)C(=O)O)c1 [Gemfibrozil]
- remaining activity at 1.25 µM ([1]; Well no.=2174): 95.4%
- remaining activity at 3.75 µM ([2]; Well no.=2174): 98.7%

Compound: COC(=O)C1=CO[C@@H](O)[C@@H]2C(CO)=CC[C@H]12 [Genipin]
- remaining activity at 1.25 µM ([1]; Well no.=5276): 95.9%
- remaining activity at 3.75 µM ([2]; Well no.=5276): 89.2%

Compound: COC(=O)C1=CO[C@@H](O[C@@H]2O[C@H](CO)[C@@H](O)[C@H](O)[C@H]2O)[C@@H]2C(CO)=CC[C@H]12 [Geniposide]
- remaining activity at 1.25 µM ([1]; Well no.=5206): 102%
- remaining activity at 3.75 µM ([2]; Well no.=5206): 97.9%

Compound: O=C(O)C1=CO[C@@H](O[C@@H]2O[C@H](CO)[C@@H](O)[C@H](O)[C@H]2O)[C@@H]2C(CO)=CC[C@H]12 [Geniposidic acid]
- remaining activity at 1.25 µM ([1]; Well no.=5236): 95.4%
- remaining activity at 3.75 µM ([2]; Well no.=5236): 95.9%

Compound: O=c1c(-c2ccc(O)cc2)coc2cc(O)cc(O)c12 [Genistein - 5,7-Dihydroxy-3-(4-hydroxyphenyl)-4H-1-benzopyran-4-one]
- remaining activity at 1.25 µM ([1]; Well no.=2342): 95.4%
- remaining activity at 3.75 µM ([2]; Well no.=2342): 95.4%

Compound: O=c1c(-c2ccc(O)cc2)coc2cc(O)cc(O)c12 [Genistein]
- remaining activity at 1.25 µM ([1]; Well no.=573): 95%
- remaining activity at 1.25 µM ([1]; Well no.=3315): 94.8%
- remaining activity at 1.25 µM ([1]; Well no.=3947): 98.6%
- remaining activity at 1.25 µM ([1]; Well no.=6492): 103%
- remaining activity at 3.75 µM ([2]; Well no.=573): 94%
- remaining activity at 3.75 µM ([2]; Well no.=3315): 101%
- remaining activity at 3.75 µM ([2]; Well no.=3947): 98.5%
- remaining activity at 3.75 µM ([2]; Well no.=6492): 103%

Compound: O=c1c(-c2ccc(O)cc2)coc2cc(O[C@@H]3O[C@H](CO)[C@@H](O)[C@H](O)[C@H]3O)cc(O)c12 [Genistin]
- remaining activity at 1.25 µM ([1]; Well no.=3213): 99.7%
- remaining activity at 3.75 µM ([2]; Well no.=3213): 97.9%

Compound: O=C(O)c1cc(O)ccc1O [Gentisic acid]
- remaining activity at 1.25 µM ([1]; Well no.=3955): 110%
- remaining activity at 3.75 µM ([2]; Well no.=3955): 100%

Compound: COc1cc(-c2oc3cc(O)ccc3c(=O)c2O)ccc1O [Geraldol]
- remaining activity at 1.25 µM ([1]; Well no.=3512): 98.4%
- remaining activity at 3.75 µM ([2]; Well no.=3512): 102%

Compound: CC(=O)CC/C=C(\C)CC/C=C(\C)CC/C=C(\C)CCC=C(C)C [Geranylgeranylacetone]
- remaining activity at 1.25 µM ([1]; Well no.=6123): 96.8%
- remaining activity at 3.75 µM ([2]; Well no.=6123): 95.3%
